Data reported in US11566007B2, “Ras inhibitors” (Revolution Medicines, Inc., priority 2019, dated 2023).

Key:
Format in all cases: biochemical
KRAS Q61H = KRAS Q61H (Homo sapiens (Human), UniProt P01116+P62937, Q61H); assay: Ras-Raf (BRAF RBD) disruption / FRET / MOA assay, KRAS Q61H; conditions: Ras-Raf disruption/FRET/MOA assay; class symbols; read-out: KRAS Q61H FRET data IC50
In short: (§1)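 Compounds were tested as a 10-point 3-fold dilution series from 30 μM final for their ability to drive ternary complex formation between nucleotide-loaded Ras and cyclophilin A, displacing the BRAF RBD. After 3 h at 25° C., anti-His Eu-W1024 (10 nM) and anti-GST allophycocyanin (50 nM) were added for 1.5 h. A TR-FRET ratio decrease versus DMSO gave IC50.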

NRAS Q61R = NRAS Q61R (Homo sapiens (Human), UniProt P01111+P62937, Q61R); assay: Ras-Raf (BRAF RBD) disruption / FRET / MOA assay, NRAS Q61R; conditions: NRAS Q61R; Ras-Raf disruption/FRET/MOA assay; read-out: IC50* NRAS Q61R FRET data
NRAS Q61R, sequence (P01111 whole entry Q61R): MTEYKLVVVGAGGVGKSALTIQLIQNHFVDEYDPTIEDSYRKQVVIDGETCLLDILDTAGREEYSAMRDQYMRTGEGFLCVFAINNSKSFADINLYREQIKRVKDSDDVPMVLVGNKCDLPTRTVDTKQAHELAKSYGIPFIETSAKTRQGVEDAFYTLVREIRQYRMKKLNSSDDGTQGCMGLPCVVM
NRAS Q61R, sequence (P62937 whole entry): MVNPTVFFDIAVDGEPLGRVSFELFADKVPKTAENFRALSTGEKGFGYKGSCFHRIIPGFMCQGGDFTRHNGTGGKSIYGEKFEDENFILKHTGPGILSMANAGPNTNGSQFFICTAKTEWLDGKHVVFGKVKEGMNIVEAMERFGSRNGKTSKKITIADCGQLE
In short: as §1

K-Ras G12C = K-Ras G12C (Homo sapiens (Human), UniProt P01116+P62937, G12C); assay: Ras-Raf (BRAF RBD) disruption / FRET / MOA assay, KRAS G12C; conditions: KRAS G12C; Ras-Raf disruption/FRET/MOA assay; read-out: IC50* KRAS G12C FRET data
K-Ras G12C, sequence (P01116-2 other isoform, or with tags, fused parts or gaps G12C): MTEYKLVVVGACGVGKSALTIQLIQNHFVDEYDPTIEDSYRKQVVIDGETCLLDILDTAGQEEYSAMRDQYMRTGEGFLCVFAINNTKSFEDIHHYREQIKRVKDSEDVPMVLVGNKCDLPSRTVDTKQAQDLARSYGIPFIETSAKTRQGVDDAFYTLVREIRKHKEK
K-Ras G12C, sequence (P62937 whole entry): as the sequence (P62937 whole entry) above
In short: (§2)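 TR-FRET read-out: a drop in ratio relative to DMSO wells marks disruption of the Ras:RAF complex, reported as IC50. Compounds (3-fold series, 10 points, top 30 μM final) incubated 3 h at 25° C before Eu-anti-His 10 nM and APC-anti-GST 50 nM, 1.5 h more.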

KRAS G12D = KRAS G12D (Homo sapiens (Human), UniProt P01116+P62937, G12D); assay: Ras-Raf (BRAF RBD) disruption / FRET / MOA assay, KRAS G12D; conditions: Ras-Raf disruption/FRET/MOA assay; class symbols; read-out: KRAS G12D FRET data IC50
KRAS G12D, sequence (P01116-2 other isoform, or with tags, fused parts or gaps G12D): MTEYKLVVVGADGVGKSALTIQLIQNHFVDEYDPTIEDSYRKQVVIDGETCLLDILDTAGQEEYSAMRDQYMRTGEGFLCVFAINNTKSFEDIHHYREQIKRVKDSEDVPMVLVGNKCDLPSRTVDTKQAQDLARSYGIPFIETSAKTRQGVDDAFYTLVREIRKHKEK
KRAS G12D, sequence (P62937 whole entry): as the sequence (P62937 whole entry) above
In short: as §2

KRAS G13D = KRAS G13D (Homo sapiens (Human), UniProt P01116+P62937, G13D); assay: Ras-Raf (BRAF RBD) disruption / FRET / MOA assay, KRAS G13D; conditions: read-out: IC50* KRAS G13D FRET data
KRAS G13D, sequence (P01116-2 other isoform, or with tags, fused parts or gaps G13D): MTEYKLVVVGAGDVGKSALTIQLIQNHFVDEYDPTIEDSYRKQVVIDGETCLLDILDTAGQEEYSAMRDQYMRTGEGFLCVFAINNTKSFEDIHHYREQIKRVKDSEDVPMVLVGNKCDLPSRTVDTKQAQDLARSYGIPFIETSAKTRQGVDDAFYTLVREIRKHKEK
KRAS G13D, sequence (P62937 whole entry): as the sequence (P62937 whole entry) above
In short: as §2

NRAS Q61K = NRAS Q61K (Homo sapiens (Human), UniProt P01111+P62937, Q61K); assay: Ras-Raf (BRAF RBD) disruption / FRET / MOA assay, NRAS Q61K; conditions: NRAS Q61K; Ras-Raf disruption/FRET/MOA assay; read-out: IC50* NRAS Q61K FRET data
NRAS Q61K, sequence (P01111 whole entry Q61K): as the sequence (P01111 whole entry Q61R) above, with R61K counted along it
NRAS Q61K, sequence (P62937 whole entry): as the sequence (P62937 whole entry) above
In short: as §1

KRAS WT = KRAS WT (Homo sapiens (Human), UniProt P01116+P62937); assay: Ras-Raf (BRAF RBD) disruption / FRET / MOA assay, KRAS WT; conditions: read-out: IC50* KRAS WT FRET data
KRAS WT, sequence (P01116-2 other isoform, or with tags, fused parts or gaps): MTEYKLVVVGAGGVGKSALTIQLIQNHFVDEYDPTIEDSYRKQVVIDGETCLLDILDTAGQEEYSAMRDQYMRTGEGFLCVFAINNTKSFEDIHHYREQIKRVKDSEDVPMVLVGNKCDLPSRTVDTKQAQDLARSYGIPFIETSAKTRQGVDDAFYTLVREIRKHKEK
KRAS WT, sequence (P62937 whole entry): as the sequence (P62937 whole entry) above
In short: as §2

KRAS Q61H, sequence (P01116-2 other isoform, or with tags, fused parts or gaps Q61H): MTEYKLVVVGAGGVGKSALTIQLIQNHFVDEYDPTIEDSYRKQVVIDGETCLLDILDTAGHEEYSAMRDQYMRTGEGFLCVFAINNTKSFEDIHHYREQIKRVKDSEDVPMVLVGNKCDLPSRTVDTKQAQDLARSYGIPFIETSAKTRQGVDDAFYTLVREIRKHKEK
KRAS Q61H, sequence (P62937 whole entry): as the sequence (P62937 whole entry) above

Row | SMILES | IC50 (KRAS Q61H) [nM] | IC50 (NRAS Q61R) [nM] | IC50 (K-Ras G12C) [nM] | IC50 (KRAS G12D) [nM] | IC50 (KRAS G13D) [nM] | IC50 (NRAS Q61K) [nM] | IC50 (KRAS WT) [nM]
1 | C=CC(=O)N1CC[C@H](C(=O)N(C)[C@H](C(=O)N[C@H]2Cc3nc(cs3)-c3ccc4c(c3)c(c(-c3cc5c(nc3[C@H](C)OC)CCN(C)C5)n4CC)CC(C)(C)COC(=O)[C@@H]3CCCN(N3)C2=O)C(C)C)C1 (atropisomer, axis not shown) [Example A472] | 1000 to 10000 | 1000 to 10000 | 100 to 1000 | > 10000 | 1000 to 10000 | 1000 to 10000 | 1000 to 10000
2 | C=CC(=O)N1CC[C@H](C(=O)N(C)[C@H](C(=O)N[C@H]2Cc3cccc(c3)-c3ccc4c(c3)c(c(-c3cccnc3[C@H](C)OC)n4CC)CC(C)(C)COC(=O)[C@@H]3CCCN(N3)C2=O)C(C)(C)F)C1 (atropisomer, axis not shown) [Example A693] | 1000 to 10000 | 1000 to 10000 | 100 to 1000 | > 10000 | 1000 to 10000 | 1000 to 10000 | 1000 to 10000
3 | C=C(C)C(=O)N1CC(N(C)C(=O)N(C)[C@H](C(=O)N[C@H]2Cc3nc(cs3)-c3ccc4c(c3)c(c(-c3cccnc3[C@H](C)OC)n4CC)CC(C)(C)COC(=O)[C@@H]3CCCN(N3)C2=O)C(C)C)C1 (atropisomer, axis not shown) [Example A360] | 100 to 1000 | 100 to 1000 | 100 to 1000 | 1000 to 10000 | 1000 to 10000 | 100 to 1000 | 100 to 1000
4 | CO[C@@H](C)c1ncccc1-c1c2c3cc(ccc3n1CC(F)(F)F)N1CCO[C@@H](C[C@H](NC(=O)[C@H](C(C)C)N3CC[C@@]4(CCN(C(=O)C#CC(C)(C)N(C)C)C4)C3=O)C(=O)N3CCC[C@H](N3)C(=O)OCC(C)(C)C2)C1 (atropisomer, axis not shown) [Example A628] | > 10000 | > 10000 | < 10 | > 10000 | > 10000 | > 10000 | > 10000
5 | C=CC(=O)N1CC[C@H](C(=O)N(C)[C@H](C(=O)N[C@H]2Cc3cccc(c3)-c3ccc4c(c3)c(c(-c3cccnc3[C@H](C)OC)n4CC(F)F)CC(C)(C)COC(=O)[C@@H]3CCCN(N3)C2=O)C(C)C)C1 (atropisomer, axis not shown) [Example A335] | 1000 to 10000 | 1000 to 10000 | 100 to 1000 | > 10000 | 1000 to 10000 | 1000 to 10000 | 1000 to 10000
6 | C=CC(=O)N1CC[C@]2(CCN(C(=O)N(C)[C@H](C(=O)N[C@H]3Cc4nc(cs4)-c4ccc5c(c4)c(c(-c4cccnc4[C@H](C)OC)n5CC)CC(C)(C)COC(=O)[C@@H]4CCCN(N4)C3=O)C(C)C)C2)C1 (atropisomer, axis not shown) [Example A719] | 10 to 100 | 10 to 100 | 10 to 100 | 100 to 1000 | 100 to 1000 | 10 to 100 | 100 to 1000
7 | C=CC(=O)N1CC[C@H](C(=O)N(C)[C@@H](CC(F)(F)F)C(=O)N[C@H]2Cc3cccc(c3)-c3ccc4c(c3)c(c(-c3cccnc3[C@H](C)OC)n4CC)CC(C)(C)COC(=O)[C@@H]3CCCN(N3)C2=O)C1 (atropisomer, axis not shown) [Example A639] | 1000 to 10000 | 1000 to 10000 | 100 to 1000 | > 10000 | > 10000 | 1000 to 10000 | 1000 to 10000
8 | C=CC(=O)N1CCN(C(=O)N(C)[C@H](C(=O)N[C@H]2Cc3nc(cs3)-c3ccc4c(c3)c(c(-c3cccnc3[C@H](C)OC)n4CC)CC(C)(C)COC(=O)[C@@H]3CCCN(N3)C2=O)C(C)C)[C@H]2CC[C@H]21 (atropisomer, axis not shown) [Example A734] | 10 to 100 | 10 to 100 | 10 to 100 | 100 to 1000 | 100 to 1000 | 10 to 100 | 10 to 100
9 | CCn1c(-c2cccnc2[C@H](C)OC)c2c3cc(ccc31)-c1csc(n1)C[C@H](NC(=O)CCO[C@@H]1CCN(C(=O)C#CC(C)(C)N3CCC3)C1)C(=O)N1CCC[C@H](N1)C(=O)OCC(C)(C)C2 (atropisomer, axis not shown) [Example A366] | 100 to 1000 | 1000 to 10000 | 10 to 100 | 1000 to 10000 | 1000 to 10000 | 1000 to 10000 | 1000 to 10000
10 | CCn1c(-c2cccnc2[C@H](C)OC)c2c3cc(ccc31)-c1csc(n1)C[C@H](NC(=O)[C@@H](F)COC1CN(C(=O)C#CC(C)(C)N(C)C)C1)C(=O)N1CCC[C@H](N1)C(=O)OCC(C)(C)C2 (atropisomer, axis not shown) [Example A626] | 100 to 1000 | 1000 to 10000 | < 10 | 1000 to 10000 | 1000 to 10000 | 1000 to 10000 | 1000 to 10000
11 | CCn1c(-c2cccnc2[C@H](C)OC)c2c3cc(ccc31)-c1cccc(c1)C[C@H](NC(=O)[C@H](C(C)C)N1CC[C@@]3(CCN(C(=O)C#C[C@@H]4COCCN4C4COC4)C3)C1=O)C(=O)N1CCC[C@H](N1)C(=O)OCC(C)(C)C2 [Example A566] | 100 to 1000 | 1000 to 10000 | 10 to 100 | 1000 to 10000 | 1000 to 10000 | 1000 to 10000 | 1000 to 10000
12 | C=CC(=O)N1C[C@@H](C)[C@H](N(C)C(=O)N(C)[C@H](C(=O)N[C@H]2Cc3nc(cs3)-c3ccc4c(c3)c(c(-c3cccnc3[C@H](C)OC)n4CC)CC(C)(C)COC(=O)[C@@H]3CCCN(N3)C2=O)C(C)C)C1 (atropisomer, axis not shown) [Example A588] | 100 to 1000 | 1000 to 10000 | 100 to 1000 | 1000 to 10000 | 1000 to 10000 | 100 to 1000 | 1000 to 10000
13 | C=CC(=O)N1CC(OC[C@H](C(=O)N[C@H]2Cc3cc(F)cc(c3)-c3ccc4c(c3)c(c(-c3cccnc3[C@H](C)OC)n4CC(F)(F)F)CC(C)(C)COC(=O)[C@@H]3CCCN(N3)C2=O)C(C)C)C1 (atropisomer, axis not shown) [Example A725] | 100 to 1000 | 1000 to 10000 | 100 to 1000 | > 10000 | 1000 to 10000 | 1000 to 10000 | 1000 to 10000
14 | C=CC(=O)N1C[C@@H](C)N(C(=O)N(C)[C@H](C(=O)N[C@H]2Cc3nc(cs3)-c3ccc4c(c3)c(c(-c3cccnc3[C@H](C)OC)n4CC)CC(C)(C)COC(=O)[C@@H]3CCCN(N3)C2=O)C(C)C)[C@@H](C)C1 (atropisomer, axis not shown) [Example A387] | 10 to 100 | 10 to 100 | 10 to 100 | 100 to 1000 | 100 to 1000 | 10 to 100 | 10 to 100
15 | C=CC(=O)N1CCOC2(CCN(C(=O)N(C)[C@H](C(=O)N[C@H]3Cc4cc(CF)cc(c4)-c4ccc5c(c4)c(c(-c4cccnc4[C@H](C)OC)n5CC(F)(F)F)CC(C)(C)COC(=O)[C@@H]4CCCN(N4)C3=O)C(C)C)CC2)C1 (atropisomer, axis not shown) [Example A605] | 10 to 100 | 100 to 1000 | 100 to 1000 | 100 to 1000 | 100 to 1000 | 100 to 1000 | 10 to 100
